Test results from patent publication US20050042213A1, “Methods and pharmaceutical compositions for modulating heparanase activation and uses thereof” (InSight Biopharmaceuticals Ltd., priority 2003, published 2005).
The star is where a group is joined. AMC = Cc1cc(=O)oc2cc(N*)ccc12; Cbz = O=C(OCc1ccccc1)*

Legend:
pro-heparanase (H60) [1] = target: T1, pro-heparanase (H60) (Homo sapiens, UniProt Q9Y251, K307R); assay: Pro-heparanase activation in a cell-based assay (293 cells, DMB assay)
T1 sequence (Q9Y251 36-543 K307R): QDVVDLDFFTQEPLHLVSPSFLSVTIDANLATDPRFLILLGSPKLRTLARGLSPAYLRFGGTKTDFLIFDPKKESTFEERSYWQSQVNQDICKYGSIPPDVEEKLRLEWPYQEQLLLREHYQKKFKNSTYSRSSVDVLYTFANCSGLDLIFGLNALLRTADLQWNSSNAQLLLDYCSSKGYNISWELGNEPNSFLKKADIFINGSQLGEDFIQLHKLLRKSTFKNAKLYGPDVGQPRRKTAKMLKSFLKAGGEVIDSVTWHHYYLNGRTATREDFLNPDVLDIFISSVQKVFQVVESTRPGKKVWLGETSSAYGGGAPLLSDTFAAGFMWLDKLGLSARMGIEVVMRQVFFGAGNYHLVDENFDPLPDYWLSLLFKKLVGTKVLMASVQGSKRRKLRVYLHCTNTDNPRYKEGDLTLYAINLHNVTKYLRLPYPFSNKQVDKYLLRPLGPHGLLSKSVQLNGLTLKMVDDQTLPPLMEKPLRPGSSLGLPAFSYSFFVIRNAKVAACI

heparanase (H53) = target: T2, heparanase (H53) (Homo sapiens, UniProt Q9Y251, K307R); assay: Heparanase activity inhibition (H53), DMB assay; type: biochemical; conditions: heparanase activity inhibition (H53); NI = no inhibition
T2 sequence (Q9Y251 158-543 K307R limits assumed): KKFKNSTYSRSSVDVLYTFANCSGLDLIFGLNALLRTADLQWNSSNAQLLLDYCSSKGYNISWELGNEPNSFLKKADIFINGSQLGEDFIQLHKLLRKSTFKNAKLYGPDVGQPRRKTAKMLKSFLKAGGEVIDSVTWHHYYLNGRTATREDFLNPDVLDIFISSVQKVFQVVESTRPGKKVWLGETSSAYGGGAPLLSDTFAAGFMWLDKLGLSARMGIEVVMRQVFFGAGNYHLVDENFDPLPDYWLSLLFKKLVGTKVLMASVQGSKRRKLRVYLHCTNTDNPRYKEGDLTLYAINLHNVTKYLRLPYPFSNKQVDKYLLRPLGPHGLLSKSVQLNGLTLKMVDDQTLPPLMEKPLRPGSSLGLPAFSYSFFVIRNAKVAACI
T2 sequence (Q9Y251 36-109 limits assumed): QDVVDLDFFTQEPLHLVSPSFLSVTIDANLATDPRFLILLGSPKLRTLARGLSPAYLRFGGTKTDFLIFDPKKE
Protocol: At the end of the incubation, the cells were lysed by three consecutive cycles of freezing and thawing in a −80° C. Freezer and a 37° C. shaker. Formation of active heparanase was detected by determination of heparanase activity in DMB assay as described in patent application U.S. Pat. No. 6,190,875B.

β-FGF = target: T3, β-FGF (Homo sapiens, UniProt P09038); assay: Elisa assay for binding of β-FGF to heparin; conditions: inhibition of β-FGF binding to heparin
T3 construct: purchased Sigma F0291
T3 sequence (P09038 143-288): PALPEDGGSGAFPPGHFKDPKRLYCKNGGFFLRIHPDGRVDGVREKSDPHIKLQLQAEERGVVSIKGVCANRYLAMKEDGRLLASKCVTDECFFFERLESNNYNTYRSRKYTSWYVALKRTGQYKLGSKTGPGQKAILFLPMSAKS
Protocol: Elisa assay for determination of binding of β-FGF to heparin—96 well microplates were coated overnight with Heparin-albumin (Lizard) and blocked with 1% BSA in PBS with 0.05% Tween and 0.01% thimerosal for 2 hrs. β-FGF was added to the plates at a concentration of 0.8 ng/ml and incubated for 45 min at 23-25° C. The amount of β-FGF bound to heparin was detected using anti-FGF monoclonal antibody (Sigma Cat. # F6162) at a concentration of 2.5 ng/ml and secondary antibodies Sheep anti-mouse IgG linked to horseradish peroxidase (1:3000). TMB (Pierce Cat. #34021) was used as a substrate for peroxidase.
(§1) The plates were read at 450 nm with a reference wavelength of 630 nm using a VERSAmax plate reader. […] Percent inhibition was calculated as compared with the control reactions pre-incubated with 1% DMSO only.

[2] = target: T4, pro-heparanase transiently expressed in 293 cells (Homo sapiens, UniProt Q9Y251, K307R); assay: Pro-heparanase processing in transiently transfected 293 cells (Western blot); type: cell-based
T4 sequence (Q9Y251 36-543 K307R): T1 sequence (Q9Y251 36-543 K307R)
Protocol: (§2) Western blot analysis—Western blot analysis was performed using rabbit anti-heparanase polyclonal antibodies as described in U.S. Pat. Nos. 6,177,545; 6,531,129; and 6,562,950.
Transient transfections—293 cells (200,000) were plated onto a 6 well tissue culture plate. 24 hrs later, the cells were transfected with 1 μg pSI (Promega) hpa plasmid (U.S. Pat. No. 6,475,763) in 3 μl Fugene reagent that was pre-incubated for 15 min in 100 μl medium without serum. Cells were treated with inhibitors 4 and 17 hrs following transfection.

[3] = Heparin binding of compounds (heparin sepharose CL-6B beads); conditions: compound at 5 uM
Protocol: Heparin binding—5 μM of the selected compound was prepared in a solution of PBS pH 7.2 with 0.05% Tween and 5% DMSO. […] Excess water was discarded by filtration using a Multiscreen vacuum manifold (Millipore, Cat No. MAVM 096 00). 200 μl of each compound tested was transferred to three wells of the filter plate—one empty well, one with sepharose CL-6B and one with heparin sepharose CL-6B. Plates were rotated for 2 hrs at 37° C. followed by filtration to a new 96 well clear plate, using a Multiscreen vacuum manifold. The absorbance spectrum of the filtrate in each well was determined using a VERSAmax plate reader (Molecular devices). Percent of heparin binding was calculated from the binding to heparin sepharose CL-6B as compared to the binding of the compound to the control sepharose CL-6B beads.

antithrombin = antithrombin (Homo sapiens, UniProt P01008); assay: Elisa assay for binding of antithrombin to heparin; conditions: inhibition of antithrombin binding to heparin; NI = no inhibition; read-out: IC50 ATIII
antithrombin, sequence (P01008 33-464): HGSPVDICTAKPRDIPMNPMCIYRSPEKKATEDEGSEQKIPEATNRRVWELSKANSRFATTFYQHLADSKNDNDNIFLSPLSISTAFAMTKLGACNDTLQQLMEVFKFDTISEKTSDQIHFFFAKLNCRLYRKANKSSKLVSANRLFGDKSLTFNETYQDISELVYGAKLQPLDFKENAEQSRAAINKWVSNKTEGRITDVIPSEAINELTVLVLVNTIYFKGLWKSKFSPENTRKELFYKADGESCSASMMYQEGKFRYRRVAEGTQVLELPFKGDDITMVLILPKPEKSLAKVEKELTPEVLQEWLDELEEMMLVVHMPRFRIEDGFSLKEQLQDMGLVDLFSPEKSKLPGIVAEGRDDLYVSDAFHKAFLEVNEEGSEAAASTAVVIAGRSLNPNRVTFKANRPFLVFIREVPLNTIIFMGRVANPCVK
Protocol: Elisa assay for determination of binding of antithrombin to heparin—96 well microplates were coated overnight with Heparin-albumin (Lizard) and blocked with I % BSA in PBS with 0.05% Tween and 0.01% thimerosal for 2 hrs. […] was added to the plates at a concentration of 0.5 μg/ml and incubated overnight at 4° C. The amount of antithrombin bound to heparin was detected using an anti-antithrombin monoclonal antibody (Sigma Cat. # A5816) diluted to 1:200, and secondary antibodies (anti-mouse anti-Fc? conjugated to horseradish peroxidase, Jackson cat. # 115-035-008, 1:100). TMB (Pierce Cat. #34021) was used as a substrate for peroxidase.
The plates were read at 450 nm with a reference wavelength of 630 nm using a VERSAmax plate reader. […] Percent inhibition was calculated as compared to the control reactions pre-incubated with 1% DMSO only.

VEGF = target: T5, VEGF (Homo sapiens, UniProt P15692); assay: Elisa assay for binding of VEGF to heparin; conditions: inhibition of VEGF binding to heparin
T5 sequence (P15692 27-191 isoform P15692-4): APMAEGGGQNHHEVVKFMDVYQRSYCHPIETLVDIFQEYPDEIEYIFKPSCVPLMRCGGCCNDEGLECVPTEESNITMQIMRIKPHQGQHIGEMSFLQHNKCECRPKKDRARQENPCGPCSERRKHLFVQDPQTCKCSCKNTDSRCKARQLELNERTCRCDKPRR
Protocol: Elisa assay for determination of binding of VEGF to heparin—96 well microplates were coated overnight with Heparin-albumin (Lizard) and blocked with 1% BSA in PBS with 0.05% Tween and 0.01% thimerosal for 2 hrs. VEGF was added to the plates at a concentration of 2 ng/ml and incubated for 45 min. at 23-25° C. The amount of VEGF bound to heparin was detected using anti-VEGF monoclonal antibody (Sigma Cat. # V4758) at a concentration of 0.26 μg/ml and secondary antibodies Sheep anti-mouse IgG linked to horseradish peroxidase (1:2000). TMB (Pierce Cat. #34021) was used as a substrate for peroxidase.
as §1

cathepsin G = target: T6, cathepsin G (Homo sapiens, UniProt P08311); assay: Cathepsin G activity inhibition; type: biochemical; conditions: data not shown
T6 sequence (P08311 21-244): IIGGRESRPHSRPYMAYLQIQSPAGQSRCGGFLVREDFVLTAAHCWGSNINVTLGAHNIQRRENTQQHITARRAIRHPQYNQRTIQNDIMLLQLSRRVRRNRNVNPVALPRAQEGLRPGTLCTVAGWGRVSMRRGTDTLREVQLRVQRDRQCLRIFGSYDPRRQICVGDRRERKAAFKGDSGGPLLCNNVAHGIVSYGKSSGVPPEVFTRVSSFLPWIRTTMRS

pro-heparanase (H60) [4] = assay: Processing and activation of pro-heparanase in vitro with cathepsin G; type: biochemical, human; conditions: in the presence of heparin
Protocol: The assays were performed in assay mixtures containing heparin for western blot analysis or heparin sepharose beads for activation assays, in PBS, 365 mM NaCl, with 1 μ/ml cathepsin G (Sigma, C4428). Following a 17 hours incubation at room temperature, reaction products were examined in western blot analysis or filtered to a new plate and quantified using di-methyl-methylene-blue, as described in U.S. Pat. No. 6,190,875 for activation assay.

[5] = target: T7, Elastase, human neutrophil (Homo sapiens, UniProt P08246); assay: Determination of elastase activity; type: biochemical; conditions: Table 13
T7 construct: Elastase, human neutrophil (Calbiochem cat.# 324681); purchased Calbiochem 324681; host or cells: human neutrophils
T7 sequence (P08246 30-267): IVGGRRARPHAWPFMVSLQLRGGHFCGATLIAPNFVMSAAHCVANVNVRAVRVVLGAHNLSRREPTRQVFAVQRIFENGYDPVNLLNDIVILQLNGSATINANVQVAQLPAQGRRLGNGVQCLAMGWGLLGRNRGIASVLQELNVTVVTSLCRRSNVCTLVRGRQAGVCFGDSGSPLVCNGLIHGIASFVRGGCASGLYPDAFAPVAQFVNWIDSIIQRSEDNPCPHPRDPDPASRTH

pro-heparanase (H60) [6] = target: T1, pro-heparanase (H60); assay: Processing and activation of pro-heparanase in vitro with cathepsin B and D in the presence of heparin (Western blot, DMB assay); type: biochemical; conditions: cathepsin B and/or cathepsin D, heparin-sepharose
Protocol: as §2
Following a 17 hours incubation at room temperature, reaction products were filtered to a new plate and quantified using di-methyl-methylene-blue, as described in U.S. Pat. No. 6,190,875.
Assay mixtures contained heparin (Sigma, H3393) or heparinomimetic molecules ethane-1,2-disulfonic acid (Sigma, E2269) and heparin disaccharide IVA (Sigma, H0895) for western blot analysis or heparin sepharose beads for activation assays, in 200 mM acetate buffer, pH 5.5, 4 mM EDTA and 8 mM DTT, with either Cathepsin B, Cathepsin D or both. Following a 17 hours of incubation at room temperature, reaction products were examined by western blot analysis or filtered to a new plate and quantified using di-methyl-methylene-blue, as described in U.S. Pat. No. 6,190,875 for activation assay.

Cathepsin L = target: T8, Cathepsin L (Homo sapiens, UniProt P07711); assay: Proteolytic activity assay: cleavage of fluorogenic peptides by cathepsin L; type: biochemical; conditions: substrate cleaved by Cathepsin L
T8 construct: purchased Calbiochem
T8 sequence (P07711 114-333, species assumed): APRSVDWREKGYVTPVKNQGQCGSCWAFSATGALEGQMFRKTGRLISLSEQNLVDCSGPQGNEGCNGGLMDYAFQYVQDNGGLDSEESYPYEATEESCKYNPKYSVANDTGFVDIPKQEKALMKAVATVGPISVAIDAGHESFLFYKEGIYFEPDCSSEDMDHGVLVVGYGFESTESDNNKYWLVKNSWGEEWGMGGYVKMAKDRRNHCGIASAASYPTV
Protocol: (§3) Assay was done in a reaction mixture containing 200 mM acetate buffer, pH 5.5, 4 mM EDTA and 8 mM DTT. Following a 20 minutes incubation at 37° C., fluorescence released due to proteolytic activity was determined using a BMG POLARstar™ Galaxy fluorometer: excitation at 390 nm and emission at 460 nm.

Cathepsin B = Cathepsin B (Homo sapiens, UniProt P07858); assay: Proteolytic activity assay: cleavage of fluorogenic peptides by cathepsin B; type: biochemical; conditions: substrate cleaved by Cathepsin B
Protocol: as §3

293 cell extract = assay: Cleavage of Z-Pro-Lys-Lys-Glu-AMC (Peptide 1) by 293 cell extract and its inhibition by protease inhibitors; type: biochemical, human; conditions: different pHs, pH range 4.5-7.5
Protocol: Following a 20 minutes incubation at 37° C., fluorescence released due to proteolytic activity was determined using a BMG POLARstar™ Galaxy fluorometer: excitation at 390 nm and emission at 460 nm.

Molecule: Cc1cc(N(C)C)cc2[s+]c3cc(N(C)C)cc(C)c3nc12 [Compound 112]
- IC50 (pro-heparanase (H60) [1]; inhibition of pro-heparanase activation, Table 11, heparin-binding compounds): 570 nM
- IC50 (heparanase (H53)): 20000 nM
- IC50 (β-FGF): 1300 nM
- pro-heparanase expression [2]: did not affect pro-heparanase expression
- pro-heparanase processing [2]: completely inhibited pro-heparanase processing
- Binding to heparin (5 uM) [3]: 70%
- IC50 (antithrombin): 18000 nM
- IC50 (VEGF): 2400 nM

Molecule: O=C(Nc1ccc(Oc2cccc(Oc3ccc(NC(=O)c4ccncc4)cc3)c2)cc1)c1ccncc1 [Compound 128]
- IC50 (pro-heparanase (H60) [1]; inhibition of pro-heparanase (H60) activation, Table 13 serine protease inhibitors): 500 nM
- inhibition of the activity of cathepsin G (cathepsin G): inhibit the activity of cathepsin G
- inhibition of pro-heparanase activation in-vitro by cathepsin G (pro-heparanase (H60) [4]): inhibit pro-heparanase activation in-vitro by cathepsin G
- IC50 [5]: 13000 nM
- activation of pro-heparanase in vitro (heparanase activity) (pro-heparanase (H60) [6]): not by cathepsin B

Molecule: Z-Pro-Lys-Lys-Glu-AMC (Cbz-PKKE-{AMC}; SMILES Cc1cc(=O)oc2cc(NC(=O)[C@H](CCC(=O)O)NC(=O)[C@H](CCCCN)NC(=O)[C@H](CCCCN)NC(=O)[C@@H]3CCCN3C(=O)OCc3ccccc3)ccc12) [Peptide 1]
- Activity (δfluorescence) (Cathepsin L): 0
- Activity (δfluorescence) (Cathepsin B): 8926
- cleavage by 293 cell extract (293 cell extract): highest at pH 5.5-6.5
